By bioavailability is commonly meant the share of a dose that reaches the circulation, judged against a reference dose that is usually intravenous.

The source of these data is US20240076347A1, “METHODS FOR PREVENTING FUNGAL INFECTIONS” (Cidara Therapeutics, Inc., priority 2016, published 2024).

SMILES strings stand for the structures. Numbered stars: 1 amine (or outer) side, 2 acyl side, 3 side chain; on linkers, the order of the positions; unused ones are H or OH. Bridge positions count the residues as written; N and C are the ends. Square brackets hold non-standard residues; d marks the D form. Peptide text beside a SMILES is read from it. * marks the point of attachment. ξ: configuration not given here. Orn(4R-OH,5R-OCH2CH2NMe3+) = C[N+](C)(C)CCO[C@@H](N[*:3])[C@H](O)C[C@H](N[*:1])C(=O)[*:2]; pTerphenylCO(4''-OnC5H11) = CCCCCOc1ccc(-c2ccc(-c3ccc(C(=O)*)cc3)cc2)cc1; hTyr(3S-OH,4S-OH) = N[C@H](C(=O)O)[C@H](O)[C@@H](O)c1ccc(O)cc1; X1 = C[C@H]1CN([*:1])C(C(=O)[*:2])C1O; Hyp = O=C(O)[C@@H]1C[C@@H](O)CN1; ξT = CC(O)C(N)C(=O)O

What all share (assay type): in vivo
Data set [1] in a line: Pharmacokinetic profile in mice after subcutaneous dose. The conditions noted are these: mouse, plasma, 10 mg/kg SC.
For data set [2], the system named is Candida albicans ATCC SC5314. Kind of data set: Prophylaxis, neutropenic ICR mouse candidiasis model, kidney CFU. As to the method:
Candidiasis model: ICR mice (5/group) were rendered neutropenic by cyclophosphamide on Day −4 (150 mg/kg) and Day −1 (100 mg/kg), then challenged (Day 0) with Candida albicans ATCC SC5314 via IV (100 μL, […] CFU/mouse). Prior to challenge, mice were given one SC dose (5, 10, or 20 mg/kg) of CD101 on Day −5, Day −3, or Day −1. At 24 hours post-challenge, kidneys were removed for CFU enumeration.

Data set [3] in a line: Tissue distribution in SD rats after IV dose. The conditions noted are these: Sprague-Dawley, rat, 5 mg/kg IV. As to the method:
The in vitro activity of CD101 was evaluated against 153 A. fumigatus clinical isolates collected as part of the 2014 and 2015 JMI international SENTRY surveillance program. Susceptibility was determined by measuring the minimal effective concentration (MEC) values in accordance with CLSI broth microdilution guidelines (M38-A2). In vivo tissue distribution of CD101 in SD rats (N=3/time up to 5 d) after a 5 mg/kg IV CD101 dose. Plasma/tissue concentrations were measured by LC-MS/MS.

Turning to `CCCCCOc1ccc(-c2ccc(-c3ccc(C(=O)N[C@H]4C[C@@H](O)[C@@H](OCC[N+](C)(C)C)NC(=O)C5C(O)[C@@H](C)CN5C(=O)[C@H]([C@@H](C)O)NC(=O)[C@H]([C@H](O)[C@@H](O)c5ccc(O)cc5)NC(=O)[C@@H]5C[C@@H](O)CN5C(=O)C(C(C)O)NC4=O)cc3)cc2)cc1` (stereo partly drawn) [CD101] ({pTerphenylCO(4''-OnC5H11)}-[Orn(4R-OH,5R-OCH2CH2NMe3+)][ξT][Hyp][hTyr(3S-OH,4S-OH)]T[X1]; lactam 1-C), the half-life in data set [1] is roughly 25 h; in data set [3] (plasma, read-out: t1/2 in plasma (converted)), 39 h; in data set [3] (all tissues studied, read-out: t1/2 in tissues), 40 to 77 h. Moreover, the bioavailability in data set [1] (read-out: absolute bioavailability) is roughly 50%. In addition, the “kidney CFU” value in data set [2] (10 mg/kg SC single dose at Day −3 and Day −1, 24 h post-challenge, all animals) is “Complete clearance”; in data set [2] (20 mg/kg SC on Day −3, all but one animal), “Complete clearance”; in data set [2] (20 mg/kg SC on Day −5, −3 or −1), “reduced CFU burden regardless of prophylactic treatment day”; in data set [2] (5 or 10 mg/kg SC at Day −3 and Day −1), “significant decrease in CFU”. Moreover, the Kp in data set [3] (liver, kidney, lung, spleen, read-out: tissue/plasma exposure ratios) was roughly 4.
